The source of these data is PMC10412585 (Nature Communications, 2023).

One assay deals with CD94/NKG2C. The experiment in a line: CD94/NKG2C tetramer and dextramer staining of yeast-displayed peptide-HLA-E. It counts as binding, human. The conditions noted are these: yeast-displayed single chain trimer, 500 nM tetramer, 2 h, 4 °C, flow cytometry. From the text:
(§1) To study the diversity of the HLA-E peptide repertoire recognized by CD94/NKG2x, we adapted an MHC yeast surface display system previously used to study class Ia MHC-restricted TCR recognition[25],[26]. In this system, peptide, Beta-2-microglobulin (β2M), and MHC heavy chain are covalently linked to each other and fused to the N-terminus of the yeast mating factor protein Aga2p (Fig. 1A, B). The HLA-E single chain trimer construct expressed well on the yeast surface, as confirmed via staining for an included hemagglutinin (HA) epitope tag and via an anti-HLA-E antibody (Fig. 1C). Since epitope tag staining assesses construct expression rather than protein fold[27]–[29], we tested peptide-HLA-E (pHLA-E) fold by staining with its cognate NK receptors. […] (Supplemental Fig. 1A, E–G), though both receptors were able to bind and enable selective enrichment of […]/HLA-E-expressing yeast using avid streptavidin-coated beads (Supplemental Fig. 1B–D).
(§2) To stain peptide-HLA-E (pHLA-E) with CD94/NKG2x tetramers, each biotinylated receptor was mixed with streptavidin coupled to AlexaFluor647 (SAV-647, made in-house) at a 5:1 ratio and incubated for 5 min on ice. Yeast were stained with 500 nM tetramer for 2 h at 4 °C in the dark with rotation. […]
(In general: Flow cytometry measures light scatter and fluorescence of single cells or particles in a stream.)

The next assay concerns the target T1, CD94/NKG2A (Homo sapiens, UniProt P26715+Q13241).
T1 construct: The C-terminus of human NKG2A or NKG2C ectodomain was connected via a GGSGGS linker to human CD94 ectodomain; AviTag biotinylation tag (C); poly-histidine tag (C); made in house; host or cells: baculovirus, High Five (Hi5) insect cells
The experiment in a line: CD94/NKG2A tetramer staining of yeast-displayed peptide-HLA-E. The conditions noted are these: yeast-displayed single chain trimer, 500 nM tetramer, 2 h, 4 °C, flow cytometry. It counts as binding.
From the text: as §1, §2

The next assay deals with HLA-E. As to the kind of experiment: HLA-E surface stabilization assay with RMA-S/HLA-E cells. It counts as cell-based, human. To be noted: peptide 3-300 µM (Fig. 3: 30 µM) in OptiMEM, 16 h, 37 °C, anti-HLA-E 3D12, flow cytometry, n = 4 replicate experiments.

T1 sequence (Q13241 whole entry, looked up, the tested form may be a part): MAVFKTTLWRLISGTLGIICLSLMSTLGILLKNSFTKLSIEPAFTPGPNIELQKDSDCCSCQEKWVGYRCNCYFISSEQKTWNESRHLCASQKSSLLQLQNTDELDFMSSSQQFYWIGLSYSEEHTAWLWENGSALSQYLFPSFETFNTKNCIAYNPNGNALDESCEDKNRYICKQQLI
T1 sequence (P26715 whole entry, looked up, the tested form may be a part): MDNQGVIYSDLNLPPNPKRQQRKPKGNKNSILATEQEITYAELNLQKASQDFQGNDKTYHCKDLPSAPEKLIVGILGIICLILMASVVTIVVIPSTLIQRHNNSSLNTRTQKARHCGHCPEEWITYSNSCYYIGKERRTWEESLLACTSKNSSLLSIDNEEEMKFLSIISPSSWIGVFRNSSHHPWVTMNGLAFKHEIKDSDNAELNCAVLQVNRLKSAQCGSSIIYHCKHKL

For the sequence VMAPRTLFL [positive control], the “CD94/NKG2C tetramer and dextramer staining” value in the assay with CD94/NKG2C was “minimal signal”. Further, the CD94/NKG2A tetramer staining entry on CD94/NKG2A is recorded as “positively stained cells”. Consider “VNPGRSLFL [BFAR263-271, human peptide from Bifunctional apoptosis regulator]”, for which the “stabilization of HLA-E surface expression” value in the assay on HLA-E is given as “weak but detectable stabilization”.
